Results taken from ChEMBL document CHEMBL3120127, “2,4-Diaminothienopyrimidines as orally active antimalarial agents” (J Med Chem, 2014).
≈ marks a conversion by molar mass, not a printed value.

Experiments:
[1] = Solubility of the compound in phosphate buffer at pH 6.5 by HPLC-DAD-MS analysis; type: physicochemical
[2] = Solubility of the compound in 0.01 M HCl at pH 2; type: physicochemical
[3] = Solubility of the compound in phosphate buffer at pH 6.5 by nephlometric analysis; type: physicochemical
physchem = settings: octanol/water, pH 7.4
[4] = Volume of distribution at steady state in Sprague-Dawley rat blood at 4 mg/kg, iv; type: ADME, organism-based; design: dose 4 mg/kg, route intravenous; settings: read-out: Vdss
[5] = Volume of distribution at steady state in Sprague-Dawley rat plasma at 4 mg/kg, iv; type: ADME, organism-based; design: dose 4 mg/kg, route intravenous; settings: read-out: Vdss
[6] = Oral bioavailability in Sprague-Dawley rat at 19 mg/kg; type: ADME, organism-based; settings: in vivo
[7] = AUC (0 to infinity) in Sprague-Dawley rat at 4 mg/kg, iv; type: ADME, organism-based; design: dose 4 mg/kg, route intravenous, time infinity; settings: plasma
Rattus norvegicus [8] = experiment: AUC (0 to infinity) in Sprague-Dawley rat at 19 mg/kg, po; type: ADME, organism-based, Plasma; design: time infinity, dose 19 mg/kg, route oral; settings: in vivo
Rattus norvegicus [9] = experiment: Tmax in Sprague-Dawley rat at 19 mg/kg, po; type: ADME, organism-based; design: dose 19 mg/kg, route oral; settings: in vivo
Rattus norvegicus [10] = experiment: Cmax in Sprague-Dawley rat at 19 mg/kg, po; type: ADME, organism-based; design: dose 19 mg/kg, route oral; settings: in vivo
[11] = Plasma concentration in Swiss outbred mouse infected with Plasmodium berghei at 50 mg/kg, po measured at 24 hrs; type: ADME, organism-based; design: dose 50 mg/kg, route oral
[12] = Plasma concentration in Swiss outbred mouse infected with Plasmodium berghei at 50 mg/kg, po measured at 4 hrs; type: ADME, organism-based; design: dose 50 mg/kg, route oral
[13] = Plasma concentration in Swiss outbred mouse infected with Plasmodium berghei at 50 mg/kg, po measured at 1 hr; type: ADME, organism-based; design: dose 50 mg/kg, route oral

| SMILES | solubility [1] | solubility [2] | solubility kinetic [3] | chromatographic logD (physchem) | further results |
| --- | --- | --- | --- | --- | --- |
| CNc1nc(NCCCN(C)C)c2sc(-c3cncnc3)cc2n1 | 194 µg/mL (≈ 565 µM) | 214 µg/mL (≈ 623 µM) | – | – | – |
| CNc1nc(NCCCN(C)C)c2sc(-c3ccc(N4CCOCC4)cc3)cc2n1 | – | 12.5 µg/mL (≈ 29.3 µM) | 12.5 µg/mL (≈ 29.3 µM) | 3 | – |
| CNc1nc(NCCCN(C)C)c2sc(-c3ccccc3)cc2n1 | – | > 100 µg/mL | > 100 µg/mL | 2.2 | Vd [4]: 37 L/kg; Vd [5]: 139 L/kg; bioavailability [6]: 34%; AUC(0-inf) [7]: 1.28 µM·h; AUC (Rattus norvegicus [8]): 125 µM·min; Tmax (Rattus norvegicus [9]): 1.75 h; Cmax (Rattus norvegicus [10]): 8 nM |
| CNc1nc(NCCCN(C)C)c2sc(-c3ccc(OC(F)(F)F)cc3)cc2n1 | – | > 100 µg/mL | > 100 µg/mL | 4.6 | – |
| CNc1nc(NCCCN(C)C)c2sc(-c3ccc(F)cc3)cc2n1 | – | – | – | – | concentration at 24 h [11]: 40 nM; concentration at 4 h [12]: 90 nM; concentration at 1 h [13]: 140 nM |
| CNc1nc(NCCCN(C)C)c2sc(-c3cccc(C#N)c3)cc2n1 | – | > 100 µg/mL | 25 µg/mL (≈ 68.2 µM) | 2.9 | – |
| CNc1nc(NCCCN(C)C)c2sc(-c3ccc(S(C)(=O)=O)cc3)cc2n1 | – | > 100 µg/mL | 25 µg/mL (≈ 59.6 µM) | 2.1 | – |
| CNc1nc(NCCCN(C)C)c2sc(-c3ccc4nonc4c3)cc2n1 | – | > 100 µg/mL | 25 µg/mL (≈ 65.2 µM) | 3.3 | – |
| CNc1nc(NCCCN(C)C)c2sc(-c3cccc(OC(F)(F)F)c3)cc2n1 | – | > 100 µg/mL | > 100 µg/mL | 4.3 | – |
| CNc1nc(NCCCN(C)C)c2sc(-c3ccc(NS(C)(=O)=O)cc3)cc2n1 | – | > 100 µg/mL | 25 µg/mL (≈ 57.5 µM) | 2.1 | – |
| CNc1nc(NCCCN(C)C)c2sc(-c3ccc(-n4cccn4)cc3)cc2n1 | 191 µg/mL (≈ 469 µM) | 217 µg/mL (≈ 532 µM) | – | – | – |
| CNc1nc(NCCCN(C)C)c2sc(-c3ccc(C(F)(F)F)nc3)cc2n1 | – | > 100 µg/mL | 12.5 µg/mL (≈ 30.5 µM) | 3 | – |
| CNc1nc(NCCCN(C)C)c2sc(-c3ccc(N)cc3)cc2n1 | – | > 100 µg/mL | 12.5 µg/mL (≈ 35.1 µM) | 2.3 | – |
| CNc1nc(NCCCN(C)C)c2sc(-c3cccc(C(F)(F)F)c3)cc2n1 | 160 µg/mL (≈ 391 µM) | 180 µg/mL (≈ 440 µM) | – | – | – |
| CNc1nc(NCCCN(C)C)c2sc(-c3ccoc3)cc2n1 | 203 µg/mL (≈ 612 µM) | 221 µg/mL (≈ 667 µM) | – | – | – |
| CNc1nc(NCCCN(C)C)c2sc(-c3ccc(C(C)=O)cc3)cc2n1 | – | > 100 µg/mL | 12.5 µg/mL (≈ 32.6 µM) | 2.9 | – |
| CNc1nc(NCCCN(C)C)c2sc(-c3ccc(C(F)(F)F)cc3)cc2n1 | 177 µg/mL (≈ 432 µM) | 240 µg/mL (≈ 586 µM) | – | 4.1 | concentration at 24 h [11]: 210 nM; concentration at 4 h [12]: 220 nM; concentration at 1 h [13]: 410 nM |
| CNc1nc(NCCCN(C)C)c2cc(-c3ccccc3)sc2n1 | 184 µg/mL (≈ 539 µM) | 216 µg/mL (≈ 633 µM) | – | – | – |
| CNc1nc(NCCCN(C)C)c2sc(-c3cc(C(F)(F)F)cc(C(F)(F)F)c3)cc2n1 | 130 µg/mL (≈ 272 µM) | 186 µg/mL (≈ 390 µM) | – | – | – |
| CNc1nc(NCCCN(C)C)c2oc(-c3ccccc3)cc2n1 | 203 µg/mL (≈ 624 µM) | 214 µg/mL (≈ 658 µM) | – | – | – |
| CNc1nc(NCCCN(C)C)c2sc(-c3ccc(OC)nc3)cc2n1 | – | > 100 µg/mL | 25 µg/mL (≈ 67.1 µM) | 2.8 | – |
| CNc1nc(NCCCN(C)C)c2sc(-c3ccc(C(F)(F)F)cc3Cl)cc2n1 | – | > 100 µg/mL | > 100 µg/mL | 4.5 | – |
| CNc1nc(NCCCN(C)C)c2sc(-c3ccc(C(=O)N4CCOCC4)cc3)cc2n1 | – | > 100 µg/mL | 25 µg/mL (≈ 55 µM) | 2.2 | – |
| CNc1nc(NCCCN(C)C)c2sc(-c3ccc(C#N)cc3)cc2n1 | – | > 100 µg/mL | 50 µg/mL (≈ 136 µM) | – | – |
| CNc1nc(NCCCN(C)C)c2sc(-c3ccc(N4CCNCC4)cc3)cc2n1 | – | > 100 µg/mL | 12.5 µg/mL (≈ 29.4 µM) | 3.5 | – |
